Source: patent US9757375B2, “Compounds that inhibit human DNA ligases and methods of treating cancer” (University of Maryland, Baltimore, priority 2007, dated 2017)
“Also recorded” adds a separate entry of the source.

Experiments:
T4 DNA ligase = molecular target: T1, T4 DNA ligase (Enterobacteria phage T4, UniProt P00970); assay: High-throughput fluorescence-based DNA joining assay, non-specific inhibitor control; assay type: biochemical, bacteriophage T4; details: in vitro screen, 100 μmol/L
T1 construct: purchased NEB
T1 sequence (P00970 1-487): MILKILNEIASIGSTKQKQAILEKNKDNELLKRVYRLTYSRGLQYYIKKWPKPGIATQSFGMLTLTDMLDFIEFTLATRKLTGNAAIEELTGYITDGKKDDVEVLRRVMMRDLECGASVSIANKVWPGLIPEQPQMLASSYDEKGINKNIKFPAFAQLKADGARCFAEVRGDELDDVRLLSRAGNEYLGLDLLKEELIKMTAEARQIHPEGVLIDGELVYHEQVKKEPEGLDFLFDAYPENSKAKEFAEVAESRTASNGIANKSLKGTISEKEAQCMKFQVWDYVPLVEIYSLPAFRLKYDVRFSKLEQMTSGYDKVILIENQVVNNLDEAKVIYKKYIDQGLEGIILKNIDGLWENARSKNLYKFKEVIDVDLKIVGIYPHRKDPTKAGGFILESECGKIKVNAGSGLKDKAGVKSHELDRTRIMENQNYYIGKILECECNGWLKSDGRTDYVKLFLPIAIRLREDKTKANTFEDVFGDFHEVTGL
Outline: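 This counter-screen used a FRET-based DNA joining assay. Duplicate reactions held 10 pmol nicked DNA substrate and 10 units T4 DNA ligase, with or without 100 μmol/L compound. T4 ligase lacks the DNA-binding domain targeted in silico, so compounds inhibiting it were flagged as non-specific, likely DNA-binding.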

DNA = DNA binding by displacement of ethidium bromide from DNA; details: EtBr replacement assay; 192 at 0, 50, 100 μM
Protocol: Candidate ligase inhibitors identified by CADD were assayed for their ability to inhibit hLigI and T4 DNA ligase using a high-throughput, fluorescence energy transfer-based DNA joining assay (22). Duplicate reactions (30 μL) containing 10 pmol of nicked DNA substrate and either 0.25 pmol of hLigI or 10 units of T4 DNA ligase were incubated in the presence or absence of 100 μmol/L of the putative inhibitor. DNA binding by the candidate DNA ligase inhibitors was measured by displacement of ethidium bromide from DNA as previously described (30).

hLigI = molecular target: T2, hLigI (Homo sapiens, UniProt P18858); assay: High-throughput fluorescence-based DNA joining (ligation) assay; assay type: biochemical; details: in vitro screen, 100 μmol/L; the 15 hLigI inhibitors inhibited by >50%
T2 construct: made in house
T2 sequence (P18858 whole entry): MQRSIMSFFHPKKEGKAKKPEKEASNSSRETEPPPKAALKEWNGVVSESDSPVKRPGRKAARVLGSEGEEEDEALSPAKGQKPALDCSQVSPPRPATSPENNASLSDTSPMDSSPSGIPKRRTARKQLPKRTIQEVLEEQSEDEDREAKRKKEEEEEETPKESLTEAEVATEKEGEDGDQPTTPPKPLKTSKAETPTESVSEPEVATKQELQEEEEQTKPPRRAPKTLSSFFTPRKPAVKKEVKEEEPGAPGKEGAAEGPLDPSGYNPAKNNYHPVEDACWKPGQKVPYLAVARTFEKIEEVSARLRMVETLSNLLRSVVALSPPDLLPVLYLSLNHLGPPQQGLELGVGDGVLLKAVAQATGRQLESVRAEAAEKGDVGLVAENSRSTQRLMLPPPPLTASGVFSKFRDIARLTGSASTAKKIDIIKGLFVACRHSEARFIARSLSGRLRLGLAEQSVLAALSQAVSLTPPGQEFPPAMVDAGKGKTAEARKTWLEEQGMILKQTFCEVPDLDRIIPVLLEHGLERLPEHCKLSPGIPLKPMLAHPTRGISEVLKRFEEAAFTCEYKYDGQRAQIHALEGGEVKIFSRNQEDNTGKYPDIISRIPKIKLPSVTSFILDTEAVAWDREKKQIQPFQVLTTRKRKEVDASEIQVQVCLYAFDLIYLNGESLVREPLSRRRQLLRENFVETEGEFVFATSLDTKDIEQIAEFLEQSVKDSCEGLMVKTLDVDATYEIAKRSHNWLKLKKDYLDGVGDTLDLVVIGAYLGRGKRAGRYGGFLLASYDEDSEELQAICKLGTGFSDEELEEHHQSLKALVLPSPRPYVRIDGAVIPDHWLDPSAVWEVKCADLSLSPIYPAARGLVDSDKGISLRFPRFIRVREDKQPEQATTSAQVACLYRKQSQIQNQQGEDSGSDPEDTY
Outline: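 Nicked DNA substrate (10 pmol) was incubated with 0.25 pmol hLigI, with or without 100 μmol/L test compound, in duplicate. Afterwards the DNA was denatured and renatured with a 20-fold excess of unmodified oligonucleotide. Ligation forms an AF488/BHQ1 hairpin, read as reduced fluorescence at 518 nm.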

HCT116 cells = assay: Cell proliferation screen (SYBR Green, Biomek FX); assay type: cell-based, human; details: 50 μM; percentage of values obtained with DMSO alone
Protocol: The ability of the compounds identified by CADD to inhibit proliferation of normal mammary epithelial MCF10A cells and colon carcinoma HCT116 cells was determined using a Biomek FX Laboratory Automation Workstation (Beckman Coulter, Inc., Fullerton, Calif.). On day 0, 20 μl of complete medium containing the appropriate number of cells (150-300) was plated per well of a 384-well tissue plate (Fisher Scientific, Hampton, N.H.) and incubated overnight at 37° C. with 5% CO2 and 90% humidity. Next day, day 1, compounds were prepared by serial dilution with complete medium to yield the concentration 100 μM, and 20 μl was added to each well containing 20 μl of medium and cells yielding the final concentration 50 μM in 40 μl volume. Plates were incubated for additional 3 days (days-2-5) until control cells (0.5% DMSO) reached ˜70-80% confluency. On day 6, 40 μl of lysis/detection solution containing 1.2% Igepal CA-630 (Sigma) and a 1:1000 dilution of SYBR Green I nucleic acid stain (Molecular Probes, Eugene, Oreg.) was added to each well. Following an overnight incubation at 37° C., total fluorescence was measured using a Fluorostar Galaxy plate reader with a 485 nm excitation filter and 520 nm emission filter set (BMG Labtech, Inc., Durham, N.C.). Data was exported to a custom program that determined growth inhibition by dividing each individual fluorescence value by the average of fluorescence values obtained with cells treated with DMSO alone.
The 192 human DNA ligase inhibitors were screened in parallel for effects on proliferation and the ability to potentiate the effects of several DNA damaging agents using two cell human lines, a colon cancer line HCT116 and a normal breast epithelial cell line MCF10A using a Biomek FX Laboratory Automation Workstation as described (23). The DNA damaging agents used, methyl methanesulfonate (MMS), camptothecin, cis-platinum, 3 aminobenzamide and ionizing radiation, are representatives of classes of agents used to treat cancer. Briefly, HCT116 and MCF10A cells were plated in 96 well plates such that the cultures were about 80% confluent after 5 days incubation. Compounds were added to the cultures at either 15 μM or 50 μM 1 day after plating. After incubation for 3 days, cell lysed in a solution containing 1.2% Igepal CA-630 and SYBR green that stains DNA (1:1000, Molecular Probes, Eugene, Oreg.). Subsequently, fluorescence was measured per well. The studies with DNA damaging agents were performed as follows. […] For ionizing radiation, cells were pre-incubated with the compounds at 50 μM for 1 hour prior to exposure to 2 gray of ionizing radiation. Cultures were incubated for 3 days and then treated as above.

Structure (SMILES): O=S(=O)(O)N=Nc1ccc2c(c1)[nH]c1ccccc12 [Compound 192]
- inhibition of T4 DNA ligase, in words (T4 DNA ligase): inhibits both hLigI and T4 DNA ligase
- DNA binding of compound (effect on DNA binding by ethidium bromide) (DNA): reduced DNA binding of the DNA intercalating agent ethidium bromide; also recorded: EtBr is replaced
- inhibition of hLigI (DNA ligase I), in words (hLigI): inhibited hLigI; also recorded: inhibits both hLigI and T4 DNA ligase
- Growth_Inh % (50 μM) HCT116 (HCT116 cells): 70%
